Source: PMC6539144, “Discovery of Novel Potential Reversible Peptidyl Arginine Deiminase Inhibitor” (International Journal of Molecular Sciences, 2019)
Read-outs that look alike come from different tables or passages of the source.

Columns and labels:
[1] = tested on: PAD4; settings: cited from earlier work
[2] = biological target: T1, GST-PAD4 (Homo sapiens, UniProt Q9UM07); test: GST-PAD4 inhibitory activity in the presence of serum and synovial fluid; type: biochemical; settings: for Inhibitory potential on GST-PAD4 in the presence of serum / Inhibitory activity on GST-PAD4 in the presence of RA synovial fluid: 50 µM compound (Cl-amidine 50 and 200 µM); for Inhibitory potential on GST-PAD4 in the presence of serum: serum diluted 1:3, compared to in vitro conditions; for Inhibitory activity on GST-PAD4 in the presence of RA synovial fluid: synovial fluid diluted 1:3, 1 mM Dansyl-Gly-Arg
T1 construct: made in house
T1 sequence (Q9UM07 whole entry): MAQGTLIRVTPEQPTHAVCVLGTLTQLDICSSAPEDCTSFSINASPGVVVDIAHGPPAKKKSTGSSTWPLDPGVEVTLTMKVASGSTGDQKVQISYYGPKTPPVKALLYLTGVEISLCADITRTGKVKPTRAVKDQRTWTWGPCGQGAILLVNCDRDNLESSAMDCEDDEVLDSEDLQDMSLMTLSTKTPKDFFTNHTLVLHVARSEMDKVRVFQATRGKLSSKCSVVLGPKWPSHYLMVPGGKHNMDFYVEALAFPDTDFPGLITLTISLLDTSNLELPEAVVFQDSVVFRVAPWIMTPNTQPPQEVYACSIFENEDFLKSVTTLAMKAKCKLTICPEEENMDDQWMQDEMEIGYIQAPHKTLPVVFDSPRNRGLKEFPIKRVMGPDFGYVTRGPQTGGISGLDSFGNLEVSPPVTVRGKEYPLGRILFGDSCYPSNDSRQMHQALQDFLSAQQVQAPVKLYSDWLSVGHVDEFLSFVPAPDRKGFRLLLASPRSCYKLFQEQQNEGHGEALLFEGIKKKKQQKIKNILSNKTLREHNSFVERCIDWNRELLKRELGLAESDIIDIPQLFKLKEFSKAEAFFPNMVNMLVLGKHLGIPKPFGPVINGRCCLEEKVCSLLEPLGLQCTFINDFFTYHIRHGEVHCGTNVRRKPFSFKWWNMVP
Method: A total of 50 μM of compounds 1 to 6 were pre-incubated with 1 mU of GST-PAD4 for 30 min at 37 °C with serum from healthy blood donors, serum or synovial fluid from patients with RA, serially diluted from 1:1.5 to 1:30 in the assay buffer (100 mM Tris pH 7.5, 10 mM CaCl2). The reaction was then initiated by the addition of 1 mM Dansyl-Gly-Arg and stopped after 1h as described above. The assay included a negative and positive control: a DMSO (no compound) control and a known irreversible compound (Cl-amidine) at 50 and 200 μM. Samples were separated by HPLC.

[3] = tested on: human neutrophils; test: Histone H3 citrullination in neutrophils stimulated with calcium ionophore; type: cell-based; settings: 50 µM, 4 μM calcium ionophore stimulation
Method: Neutrophils were isolated from human peripheral blood collected in acid citrate dextrose (ACD-A) by first spinning blood on Lymphoprep^TM (Axis Shield, Oslo, Norway), followed by dextran sedimentation using 3% dextran density gradient and hypotonic lysis of erythrocytes. Neutrophil purity was assessed to be >90% by flow cytometry. Cells were resuspended at 2 × 10^6 cells/mL in RPMI-1640 with HEPES (Thermo Fisher Scientific, Waltham, MA, USA) supplemented with 2 mM CaCl2 and pre-treated for 30 min with DMSO alone, 50 μM of compounds 1 to 6 or with either 50 or 200 μM of Cl-amidine. Cells were then stimulated with 4 μM calcium ionophore A23187 (Sigma-Aldrich, St. Louis, MO, USA) or left unstimulated as controls for 15 min at 37 °C, 5% CO2. Following stimulation, acid extraction of histones was performed according to Shechter et al.. […] The presence of citrullination in cellular histones was analyzed by Western blot.
The protein concentration in each sample was measured (A280nm) and normalized post-extraction. […] The signal was recorded with ChemiDoc image analyzer (Bio-Rad Laboratories, Hercules, CA, USA).

[4] = biological target: T1, GST-PAD4; test: GST-PAD4 inhibition assay (Dansyl-Gly-Arg citrullination, HPLC); type: biochemical; settings: for Inhibition of GST-PAD4, initial screening: 0–250 µM inhibitor, 0.25 mM Dansyl-Gly-Arg; for Ki / IC50: GST-PAD4 preincubated 30 min with compound, 0.5 mM DTT, 10 mM CaCl2, 0.25 mM Dansyl-Gly-Arg, mean ± S.D., n = 3; for Ki: assuming competitive reversible mechanism; for IC50: linear regression
Method: 1 mU of GST-PAD4 was used in the experiments. To optimize the concentration of the reducing agent, experiments were done using different concentrations of DTT in the assay buffer ranging from 0 to 10 mM and the final concentration for the presented results was 0.5 mM DTT. Following pre-incubation of enzyme in the assay buffer, the reaction was initiated by the addition of 0.25 mM Dansyl-Gly-Arg. The reaction was stopped after 1h (as described above), the sample was separated by HPLC and the relative activity of PAD in each sample was determined by measuring the peak area of the citrullinated Dansyl-Gly-Arg.
The equilibrium inhibition constant (Ki) and IC50 were calculated from the fit of observed PAD activity against the respective compound concentration. Data was analyzed by the built-in Morrisson equation for tight-binding inhibition and represent the mean ± SD from at least three different determinations. IC50 values were determined by the linear regression to the initial fragment of the inhibition curve and are representative of inhibitor concentration required for the 50% reduction in the product release during the reaction.

[5] = biological target: T2, HisTag-PPAD (Porphyromonas gingivalis, UniProt Q9RQJ2); test: HisTag-PPAD inhibition assay (Dansyl-Gly-Arg citrullination, HPLC); type: biochemical; settings: 0–250 µM inhibitor, 0.25 mM Dansyl-Gly-Arg
T2 construct: made in house
T2 sequence (Q9RQJ2 44-556): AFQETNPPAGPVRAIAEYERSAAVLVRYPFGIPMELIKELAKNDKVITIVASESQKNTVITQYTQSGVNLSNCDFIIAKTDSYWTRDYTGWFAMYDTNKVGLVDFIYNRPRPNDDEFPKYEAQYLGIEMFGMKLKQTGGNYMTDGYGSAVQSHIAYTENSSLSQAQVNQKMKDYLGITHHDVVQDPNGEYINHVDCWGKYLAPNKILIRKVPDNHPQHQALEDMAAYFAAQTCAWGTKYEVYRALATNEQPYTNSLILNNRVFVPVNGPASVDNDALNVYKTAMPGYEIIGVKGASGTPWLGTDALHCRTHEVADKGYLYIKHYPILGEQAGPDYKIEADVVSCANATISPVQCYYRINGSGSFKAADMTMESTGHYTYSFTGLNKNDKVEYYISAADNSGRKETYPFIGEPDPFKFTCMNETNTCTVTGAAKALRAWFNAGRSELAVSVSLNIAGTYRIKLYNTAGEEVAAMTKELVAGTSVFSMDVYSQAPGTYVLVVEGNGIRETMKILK

[6] = tested on: human neutrophils; test: NETs imaging assay (DNA and histone H2A immunostaining); type: cell-based; settings: 100 µM, PMA stimulation
Method: For the NETs imaging assays, neutrophils were allowed to adhere to poly-L-lysine coated coverslips (5 × 10^5 cells/coverslip) for 30 min at 37 °C, 5% CO2. Neutrophils were then treated for 1 h with DMSO alone, or 100 μM of compound 4 or Cl-amidine. Neutrophils were then stimulated with 25 nM PMA or left unstimulated as controls for 3 h at 37 °C, 5% CO2. Neutrophils were fixed with 3.7% formaldehyde for 10 min, washed three times with PBS and blocked (5% FBS, 1% BSA, 0.05% Tween, 2 mM EDTA in PBS) for 1 h. Cells were washed and treated with 0.1% saponin (Sigma-Aldrich) in PBS for 30 min. Cells were stained first with rabbit polyclonal anti-histone H2A antibody (Abcam), and then with allophycocyanin (APC) F(ab’)2 goat anti-rabbit antibody (Jackson ImmunoResearch Lab Inc., Ely, UK) in the presence of 3% BSA in 0.1% saponin. Cells were counterstained with 1 µg/mL Hoechst 33258 dye (Invitrogen). Images were captured with a fluorescence microscope (Nikon Eclips Ti, Nikon, Konan, Tokyo).

[7] = biological target: T1, GST-PAD4; test: Histone H3 citrullination assay (purified calf thymus histone H3, western blot); type: biochemical; settings: 50 µM, purified calf thymus histone H3, 0.5 mM DTT
Method: A total of 50 μM of compounds 1 to 6 were pre-incubated with 1 mU of GST-PAD4 for 30 min at 37 °C in the assay buffer (100 mM Tris pH 7.5, 10 mM CaCl2, 0.5 mM DTT). After that, 5 μg of purified calf thymus histone H3 was added to the reaction mixture and incubated further for 60 min at 37 °C. Three controls were performed in the assay: a DMSO (no compound) control and a known irreversible compound (Cl-amidine) at 50 and 200 μM. The citrullination was assessed by western blot using antibodies specific to citrullinated histone H3.
The protein concentration in each sample was measured (A280nm) and normalized post-extraction. Next, histone proteins were separated in precast Novex^TM 16% Tris-Glycine 1 mm minigels (Invitrogen, Carlsbad, CA, USA). After electrophoresis, proteins were transferred into nitrocellulose membranes (0.2 μm) at 4 °C (transfer buffer: 10 mM CAPS, 20% methanol, pH 11). Membranes were blocked for 1 h at room temperature with 5% milk in TBST (1× Tris Buffered Saline, pH 8.0, with 0.1% Tween 20) and then incubated overnight at 4 °C with rabbit polyclonal anti-H3Cit antibody (Abcam, ab5103, Cambridge, UK) at a 1:1,000 dilution in the blocking solution. […] The signal was recorded with ChemiDoc image analyzer (Bio-Rad Laboratories, Hercules, CA, USA).

[8] = tested on: human neutrophils; test: NET assay: extracellular DNA release (PicoGreen) from PMA-stimulated neutrophils; type: cell-based; settings: 30 µM
Method: Granulocyte-enriched fractions were harvested using a lymphocyte separation medium density gradient (PAN Biotech, Aidenbach, Germany). Neutrophils and erythrocytes were separated after 30 min of incubation with 1% polyvinyl alcohol (POCH, Gliwice, Poland). Neutrophils were collected from the upper layer and after centrifugation (280× g, 10 min), the residual erythrocytes were removed by lysis in water. Cells were then resuspended in serum-free DMEM without phenol red (Gibco, Waltham, MA, USA). To measure the extracellular DNA release, neutrophils were seeded at 2 × 10^6/well in 0.01 mg/mL poly-L-lysine (Sigma-Aldrich) coated 24-well plates and centrifuged (200× g, 5 min). Neutrophils were treated for 1h with DMSO alone, or with either 30 μM or 100 μM of compound 4 or Cl-amidine. Cells were then stimulated with 25 nM PMA (phorbol 12-myristate 13-acetate) or left unstimulated as controls for 3 h at 37 °C, 5% CO2. Following stimulation, the cell medium was collected and the extracellular DNA was quantified using the Quant-iT^TM PicoGreen® dsDNA Reagent (QPG; Invitrogen, Carlsbad, CA, USA). The 1:200 dilution of QPG in TE buffer (10 mM Tris, 1 mM EDTA, pH 7.5) and 90 μL of TE buffer was added to 10 μL of the supernatant containing the extracellular DNA and fluorescence was measured with an excitation wavelength 480 nm and emission wavelength 520 nm.

[9] = tested on: colitis; parameters: method as in PMID 21415415; settings: cited from earlier work
[10] = tested on: collagen-induced arthritis; settings: cited from earlier work
[11] = PAD4-specific reversible inhibitors, read-out: IC50
[12] = 50 µM compound, serum diluted 1:3, 1 mM Dansyl-Gly-Arg

**Q.** For `CCn1c(-c2nc3cc(C(=O)N4CCCC(N)C4)cc(OC)c3n2C)cc2cccnc21` (stereo not drawn) [GSK199], which IC50 [1, 11] is on record?
**A.** 200 nM

**Q.** What does the source list for `Cc1ccc(/C=c2/sc3ncnn3c2=O)o1` [Compound 2]?
**A.** Inhibitory potential on GST-PAD4 in the presence of serum [2]: retained their inhibitory potential; Inhibition of histone H3 citrullination in neutrophils (western blot) [3]: ineffective; Inhibition of GST-PAD4, initial screening [4]: partially inhibited; Ki [4]: 940 ± 310 nM; IC50 [4]: 1400 ± 260 nM; Inhibition of HisTag-PPAD [5]: no effect

**Q.** Which “NET formation visualized by DNA and histone H2A immunostaining” value [6] does the source give for `FC(F)(F)c1cc(SCc2ccc(Cl)c(Cl)c2)nc2cc3c(cc12)OCO3` [Compound 4] here?
**A.** blocked the NET formation

**Q.** What about the “Inhibitory potential on GST-PAD4 in the presence of serum” value [2] of the same compound?
**A.** retained their inhibitory potential

**Q.** And the “Inhibitory activity on GST-PAD4 in the presence of serum from RA patients” value [2, 12]?
**A.** did not diminish further

**Q.** And the “Inhibition of histone H3 citrullination in neutrophils (western blot)” value [3]?
**A.** visibly limited

**Q.** What about the “Inhibition of GST-PAD4, initial screening” value [4] of the same compound?
**A.** partially inhibited

**Q.** What about the Ki [4] of the same compound?
**A.** 1000 ± 160 nM

**Q.** And the IC50 [4]?
**A.** 1880 ± 260 nM

**Q.** And the “Inhibition of GST-PAD4-mediated citrullination of histone H3 (western blot)” value [7]?
**A.** significantly hampered

**Q.** What about the “Inhibition of DNA release (NETs) from PMA-stimulated neutrophils” value [8] of the same compound?
**A.** limited ability to block DNA release

**Q.** What about the “Inhibition of HisTag-PPAD” value [5] of the same compound?
**A.** no effect

**Q.** Which “Inhibitory activity on GST-PAD4 in the presence of RA synovial fluid” value [2] does the source give for `Cc1ccc(/C=c2/sc3ncnn3c2=O)o1` [Compound 1] here?
**A.** did not show any detectable inhibitory activity

**Q.** What about the “Inhibitory activity on GST-PAD4 in the presence of serum from RA patients” value [2, 12] of the same compound?
**A.** did not show any detectable inhibitory activity

**Q.** And the “Inhibitory activity on GST-PAD4 in the presence of serum from healthy donors” value [2, 12]?
**A.** did not show any detectable inhibitory activity

**Q.** What about the “Inhibition of GST-PAD4, initial screening” value [4] of the same compound?
**A.** no inhibition

**Q.** For `[H]/N=C(/N)N[C@H]1[C@H](O)[C@@H](O)[C@H](O[C@@H]2O[C@@H](C)[C@](O)(C=O)[C@H]2O[C@@H]2O[C@@H](CO)[C@H](O)[C@@H](O)[C@@H]2NC)[C@@H](N/C(N)=N\[H])[C@@H]1O` [streptomycin], which IC50 ([1]; reversible inhibitors) is on record?
**A.** millimolar

**Q.** For `CN(C)c1ccc(O)c2c1C[C@H]1C[C@H]3[C@H](N(C)C)C(O)=C(C(N)=O)C(=O)[C@@]3(O)C(O)=C1C2=O` [minocycline], which IC50 ([1]; reversible inhibitors) is on record?
**A.** millimolar

**Q.** For `CC(=O)O[C@H]1C(=O)[C@@]2(C)[C@H]([C@H](OC(=O)c3ccccc3)[C@]3(O)C[C@H](OC(=O)[C@H](O)[C@@H](NC(=O)c4ccccc4)c4ccccc4)C(C)=C1C3(C)C)[C@]1(OC(C)=O)CO[C@@H]1C[C@@H]2O` [taxol], which IC50 ([1]; reversible inhibitors) is on record?
**A.** millimolar

**Q.** For `N=C(CCl)NCCC[C@H](NC(=O)c1ccccc1)C(N)=O` [Cl-amidine, N-α-Benzoyl-N5-(2-Chloro-1-Iminoethyl)-l-Ornithine Amide, reference compound], which “NET formation visualized by DNA and histone H2A immunostaining” value [6] is on record?
**A.** blocked the NET formation

**Q.** And the “Clinical signs and symptoms of colitis” value [9]?
**A.** reduce clinical signs and symptoms of colitis

**Q.** What about the “Inhibitory potential on GST-PAD4 in the presence of serum” value [2] of the same compound?
**A.** partially losing its inhibitory potential

**Q.** And the “Inhibitory activity on GST-PAD4 in the presence of RA synovial fluid” value [2]?
**A.** ineffective

**Q.** And the “Severity of murine collagen-induced arthritis” value [10]?
**A.** decrease in the severity

**Q.** And the “Inhibition of GST-PAD4-mediated citrullination of histone H3 (western blot)” value [7]?
**A.** not effective

**Q.** What about the “Inhibition of DNA release (NETs) from PMA-stimulated neutrophils” value [8] of the same compound?
**A.** inhibited this effect

**Q.** Which IC50 [1, 11] does the source give for `COc1cc(C(=O)N2CC[C@@H](O)[C@@H](N)C2)cc2nc(-c3cc4ccccc4n3CC3CC3)n(C)c12` [GSK484] here?
**A.** […]
